# Test results from PubChem BioAssay AID2060599 (Molecular Pharmacology Branch, DTP, NCI, 2025).
# Tested on: 817829-284-R-J1-PDC complex spheroids, viability
# Assay: Anticancer human tumor 817829-284-R-J1-PDC patient-derived colon adenocarcinoma cell line growth inhibition [CLK]
# Conditions: for IC50: curve of first compound; for viability, T/C: stronger effect = lower value
# Procedure, shortened: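 Multi-cell-type spheroids combined patient-derived tumor cells with HUVEC endothelial cells and human mesenchymal stem cells. Paired agents were dosed in half-log steps down from about clinical Cmax, or from 10 microM where Cmax was unknown.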
# 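Note: spheroids exposed to the agents for seven days before readout.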
smiles,measurement,setting,value
C=CC(=O)Nc1cc(Nc2nccc(-c3cn(C)c4ccccc34)n2)c(OC)cc1N(C)CCN(C)C + CN1CCN(c2cc(C(=O)Nc3cc4cc(-c5cnn(C)c5)ccc4cn3)ccn2)CC1,IC50,second compound 0.0316 µM,> 300 nM
same,IC50,second compound 0.1 µM,< 0.949 nM
same,IC50,second compound 0.316 µM,< 0.949 nM
same,IC50,second compound 1 µM,< 0.949 nM
same,IC50,second compound 3.16 µM,< 0.949 nM
same,IC50,second compound 10 µM,< 0.949 nM
same,"viability, T/C","second compound 0.0316 µM, first compound 0.000949 µM",51.7%
same,"viability, T/C","second compound 0.0316 µM, first compound 0.003 µM",48.2%
same,"viability, T/C","second compound 0.0316 µM, first compound 0.00949 µM",57.6%
same,"viability, T/C","second compound 0.0316 µM, first compound 0.03 µM",58.5%
same,"viability, T/C","second compound 0.0316 µM, first compound 0.0949 µM",67.9%
same,"viability, T/C","second compound 0.0316 µM, first compound 0.3 µM",41.1%
same,"viability, T/C","second compound 0.1 µM, first compound 0.000949 µM",16.4%
same,"viability, T/C","second compound 0.1 µM, first compound 0.003 µM",17.8%
same,"viability, T/C","second compound 0.1 µM, first compound 0.00949 µM",16.3%
same,"viability, T/C","second compound 0.1 µM, first compound 0.03 µM",19.6%
same,"viability, T/C","second compound 0.1 µM, first compound 0.0949 µM",14.4%
same,"viability, T/C","second compound 0.1 µM, first compound 0.3 µM",10.9%
same,"viability, T/C","second compound 0.316 µM, first compound 0.000949 µM",1.39%
same,"viability, T/C","second compound 0.316 µM, first compound 0.003 µM",1.52%
same,"viability, T/C","second compound 0.316 µM, first compound 0.00949 µM",1.82%
same,"viability, T/C","second compound 0.316 µM, first compound 0.03 µM",1.58%
same,"viability, T/C","second compound 0.316 µM, first compound 0.0949 µM",1.13%
same,"viability, T/C","second compound 0.316 µM, first compound 0.3 µM",0.72%
same,"viability, T/C","second compound 1 µM, first compound 0.000949 µM",0.08%
same,"viability, T/C","second compound 1 µM, first compound 0.003 µM",0.12%
same,"viability, T/C","second compound 1 µM, first compound 0.00949 µM",0.1%
same,"viability, T/C","second compound 1 µM, first compound 0.03 µM",0.09%
same,"viability, T/C","second compound 1 µM, first compound 0.0949 µM",0.17%
same,"viability, T/C","second compound 1 µM, first compound 0.3 µM",0.09%
same,"viability, T/C","second compound 3.16 µM, first compound 0.000949 µM",0.14%
same,"viability, T/C","second compound 3.16 µM, first compound 0.003 µM",0.16%
same,"viability, T/C","second compound 3.16 µM, first compound 0.00949 µM",0.18%
same,"viability, T/C","second compound 3.16 µM, first compound 0.03 µM",0.12%
same,"viability, T/C","second compound 3.16 µM, first compound 0.0949 µM",0.1%
same,"viability, T/C","second compound 3.16 µM, first compound 0.3 µM",0.1%
same,"viability, T/C","second compound 10 µM, first compound 0.000949 µM",0.14%
same,"viability, T/C","second compound 10 µM, first compound 0.003 µM",0.13%
same,"viability, T/C","second compound 10 µM, first compound 0.00949 µM",0.13%
same,"viability, T/C","second compound 10 µM, first compound 0.03 µM",0.13%
same,"viability, T/C","second compound 10 µM, first compound 0.0949 µM",0.15%
same,"viability, T/C","second compound 10 µM, first compound 0.3 µM",0.13%
CC(Nc1ccc2c(c1)OCCn1cc(N3C(=O)OCC3C(F)F)nc1-2)C(N)=O (centres undefined) + CN1CCN(c2cc(C(=O)Nc3cc4cc(-c5cnn(C)c5)ccc4cn3)ccn2)CC1,IC50,second compound 0.0316 µM,3240 nM
same,IC50,second compound 0.1 µM,< 31.6 nM
same,IC50,second compound 0.316 µM,< 31.6 nM
same,IC50,second compound 1 µM,< 31.6 nM
same,IC50,second compound 3.16 µM,< 31.6 nM
same,IC50,second compound 10 µM,< 31.6 nM
same,"viability, T/C","second compound 0.0316 µM, first compound 0.0316 µM",53.4%
same,"viability, T/C","second compound 0.0316 µM, first compound 0.1 µM",55.5%
same,"viability, T/C","second compound 0.0316 µM, first compound 0.316 µM",56.8%
same,"viability, T/C","second compound 0.0316 µM, first compound 1 µM",48.1%
same,"viability, T/C","second compound 0.0316 µM, first compound 3.16 µM",51.4%
same,"viability, T/C","second compound 0.0316 µM, first compound 10 µM",22.9%
same,"viability, T/C","second compound 0.1 µM, first compound 0.0316 µM",20.4%
same,"viability, T/C","second compound 0.1 µM, first compound 0.1 µM",19.2%
same,"viability, T/C","second compound 0.1 µM, first compound 0.316 µM",17%
same,"viability, T/C","second compound 0.1 µM, first compound 1 µM",16.8%
same,"viability, T/C","second compound 0.1 µM, first compound 3.16 µM",14.3%
same,"viability, T/C","second compound 0.1 µM, first compound 10 µM",10.7%
same,"viability, T/C","second compound 0.316 µM, first compound 0.0316 µM",1.57%
same,"viability, T/C","second compound 0.316 µM, first compound 0.1 µM",1.34%
same,"viability, T/C","second compound 0.316 µM, first compound 0.316 µM",0.89%
same,"viability, T/C","second compound 0.316 µM, first compound 1 µM",0.83%
same,"viability, T/C","second compound 0.316 µM, first compound 3.16 µM",0.72%
same,"viability, T/C","second compound 0.316 µM, first compound 10 µM",0.96%
same,"viability, T/C","second compound 1 µM, first compound 0.0316 µM",0.08%
same,"viability, T/C","second compound 1 µM, first compound 0.1 µM",0.11%
same,"viability, T/C","second compound 1 µM, first compound 0.316 µM",0.12%
same,"viability, T/C","second compound 1 µM, first compound 1 µM",0.07%
same,"viability, T/C","second compound 1 µM, first compound 3.16 µM",0.09%
same,"viability, T/C","second compound 1 µM, first compound 10 µM",0.11%
same,"viability, T/C","second compound 3.16 µM, first compound 0.0316 µM",0.12%
same,"viability, T/C","second compound 3.16 µM, first compound 0.1 µM",0.15%
same,"viability, T/C","second compound 3.16 µM, first compound 0.316 µM",0.15%
same,"viability, T/C","second compound 3.16 µM, first compound 1 µM",0.15%
same,"viability, T/C","second compound 3.16 µM, first compound 3.16 µM",0.17%
same,"viability, T/C","second compound 3.16 µM, first compound 10 µM",0.14%
same,"viability, T/C","second compound 10 µM, first compound 0.0316 µM",0.07%
same,"viability, T/C","second compound 10 µM, first compound 0.1 µM",0.08%
same,"viability, T/C","second compound 10 µM, first compound 0.316 µM",0.13%
same,"viability, T/C","second compound 10 µM, first compound 1 µM",0.11%
same,"viability, T/C","second compound 10 µM, first compound 3.16 µM",0.24%
same,"viability, T/C","second compound 10 µM, first compound 10 µM",0.14%
